We go through 25 compounds from publication PMC9486951, “Tetramate Derivatives by Chemoselective Dieckmann Ring Closure of threo-Phenylserines and Their Antibacterial Activity” (The Journal of Organic Chemistry, 2022).

As usually defined, the MIC is the smallest concentration in the dilution series that meets the test's criterion for growth inhibition.

Each structure is given as a SMILES string. ≈ marks a conversion by molar mass, not a printed value. Like-named read-outs stand apart in the source and are kept apart here.

The subject of the experiment is methicillin-resistant Staphylococcus aureus (MRSA). The experiment is described as follows: MIC determination by broth dilution assay against MRSA. The class given is cell-based. As for the experimental part: With access to these derivatives routinely available, an assessment of their antibacterial activity was made by measuring minimum inhibitory concentration (MIC) values (Table S6) against two example organisms, methicillin-resistant Staphylococcus aureus (MRSA) and E. coli. […] By contrast, a more polar substituent at the C7-position (pyran 12t) compromised the antibacterial activity (125 μg/mL). […] Compound 13b had the same activity as 12g at 1.00 μg/mL. Overall, increasing lipophilicity corresponded to higher potency against MRSA. […]
Screening of compounds were performed by Oxford Antibiotic Group, Austria. For MIC determination by broth dilution assay, the samples were tested in a primary 96 well plates screening assay, in duplicate. The compounds were diluted in Mueller Hinton Broth (MHB) for bacterial screening to a stock solution of 1000 µg/mL, serial diluted and overlaid with a microbe solution in a concentration of 10^4 CFU/ml. […]
In general terms: Dilution methods test growth across graded concentrations, often in twofold steps.

Setting [1] is: Staphylococcus aureus, MRSA, Table S6, read-out: MIC.
The mark [2] stands for this setting: Staphylococcus aureus, MRSA, broth dilution, read-out: MIC against MRSA.
[3] abbreviates: Staphylococcus aureus, MRSA, Table S5, against S. aureus, read-out: MIC.

For `Cc1ccc([C@H]2O[C@@H](C(C)(C)C)N3C(=O)C(C(=O)NC45CC6CC(CC(C6)C4)C5)=C(O)[C@H]23)cc1` (mixture of isomers) [13a], the MIC is, setting by setting: under setting [1], 3.9 µg/mL; under setting [2], 3.9 µg/mL; (Table S5, against S. aureus) 3.9 µg/mL.
For the compound `CC(C)(C)[C@@H]1O[C@H](c2ccc(F)cc2)[C@H]2C(O)=C(C(=O)NC34CC5CC(CC(C5)C3)C4)C(=O)N21` (mixture of isomers) [compound 20], the MIC under setting [1] came out at 1 µg/mL; the MIC under setting [2] came to 1 µg/mL; the MIC (Table S5, against S. aureus) was 1.0 µg/mL.
Consider `CC(C)(C)[C@@H]1O[C@H](c2ccc(Cl)cc2)[C@H]2C(O)=C(C(=O)NC34CC5CC(CC(C5)C3)C4)C(=O)N21` (mixture of isomers) [compound 21], for which the MIC reads like this: under setting [1], 7.8 µg/mL; under setting [2], 7.8 µg/mL; (Table S5, against S. aureus) 7.8 µg/mL.
`CC(C)(C)[C@@H]1O[C@H](c2ccc(Br)cc2)[C@H]2C(O)=C(C(=O)NC34CC5CC(CC(C5)C3)C4)C(=O)N21` (mixture of isomers) [compound 22]: the MIC came out at 0.49 µg/mL under setting [1]; 0.49 µg/mL under setting [2]; 0.49 µg/mL (Table S5, against S. aureus).
As to `CC(C)(C)[C@@H]1O[C@H](c2ccccc2)[C@H]2C(O)=C(C(=O)Nc3ccccc3)C(=O)N21` (racemic) [12b], the MIC stood at 7.8 µg/mL (≈ 19.9 µM) under setting [3], 7.8 µg/mL (≈ 19.9 µM) under setting [2] and 7.8 µg/mL (≈ 19.9 µM) (Table S6).
`CC(C)(C)[C@@H]1O[C@H](c2ccccc2)[C@H]2C(O)=C(C(=O)Nc3ccc(Br)cc3)C(=O)N21` (racemic) [12c]: the MIC runs as follows: under setting [3], 3.9 µg/mL (≈ 8.27 µM); under setting [2], 3.9 µg/mL (≈ 8.27 µM); (Table S6) 3.9 µg/mL (≈ 8.27 µM).
Regarding `CC(C)(C)[C@@H]1O[C@H](c2ccccc2)[C@H]2C(O)=C(C(=O)Nc3ccc([N+](=O)[O-])cc3)C(=O)N21` (racemic) [12d], the “antibacterial activity against MRSA (in words)” value (from here on “antibacterial activity”) was “good bioactivity”. Moreover, the minimum inhibitory concentration (MIC) under setting [3] is 3.9 µg/mL (≈ 8.92 µM). Moreover, the MIC under setting [2] was determined as 3.9 µg/mL (≈ 8.92 µM). The compound also gave an MIC (Table S6) of 3.9 µg/mL (≈ 8.92 µM).
Consider `CC(C)(C)[C@@H]1O[C@H](c2ccccc2)[C@H]2C(O)=C(C(=O)Nc3ccc(C(F)(F)F)cc3)C(=O)N21` (racemic) [12e], for which the MIC runs as follows: under setting [3], 1 µg/mL (≈ 2.17 µM); under setting [2], 1 µg/mL (≈ 2.17 µM); (Table S6) 1.0 µg/mL (≈ 2.17 µM).
In the case of `Cc1cc(Cl)ccc1NC(=O)C1=C(O)[C@@H]2[C@@H](c3ccccc3)O[C@@H](C(C)(C)C)N2C1=O` (racemic) [12g], the MIC amounted to 1 µg/mL (≈ 2.27 µM) under setting [3], 1 µg/mL (≈ 2.27 µM) under setting [2] and 1.0 µg/mL (≈ 2.27 µM) (Table S6).
For `Cc1ccc(NC(=O)C2=C(O)[C@@H]3[C@@H](c4ccccc4)O[C@@H](C(C)(C)C)N3C2=O)c(Cl)c1` (racemic) [12h], the MIC came out at 3.9 µg/mL (≈ 8.85 µM) under setting [3] and 3.9 µg/mL (≈ 8.85 µM) (Table S6).
With `CC(C)(C)[C@@H]1O[C@H](c2ccccc2)[C@H]2C(O)=C(C(=O)Nc3ccc(C(F)(F)F)cc3Cl)C(=O)N21` (racemic) [12i], the “antibacterial activity” value was “high activities”. Also, the MIC under setting [3] stood at 0.49 µg/mL (≈ 0.99 µM). Where the note is “Table S6”, this compound had an MIC of 0.49 µg/mL (≈ 0.99 µM).
In the case of `CC(C)(C)[C@@H]1O[C@H](c2ccccc2)[C@H]2C(O)=C(C(=O)Nc3ccc(Cl)cc3C(F)(F)F)C(=O)N21` (racemic) [12j], the MIC by setting is: under setting [3], 3.9 µg/mL (≈ 7.88 µM); (Table S6) 3.9 µg/mL (≈ 7.88 µM).
For the compound `Cc1ccc(NC(=O)C2=C(O)[C@@H]3[C@@H](c4ccccc4)O[C@@H](C(C)(C)C)N3C2=O)c(C)c1` (racemic) [12k], the MIC reads like this: under setting [3], 3.9 µg/mL (≈ 9.27 µM); (Table S6) 3.9 µg/mL (≈ 9.27 µM).
With `Cc1cc(F)ccc1NC(=O)C1=C(O)[C@@H]2[C@@H](c3ccccc3)O[C@@H](C(C)(C)C)N2C1=O` (racemic) [12l], the “antibacterial activity” value was “high activities”. Also, under setting [3], the MIC came out at 1 µg/mL (≈ 2.36 µM). The MIC (Table S6) turned out to be 1.0 µg/mL (≈ 2.36 µM).
For `CCCCCCc1ccc(NC(=O)C2=C(O)[C@@H]3[C@@H](c4ccccc4)O[C@@H](C(C)(C)C)N3C2=O)cc1` (racemic) [12m], the MIC is, setting by setting: under setting [3], 0.49 µg/mL (≈ 1.03 µM); under setting [2], 0.49 µg/mL (≈ 1.03 µM); (Table S6) 0.49 µg/mL (≈ 1.03 µM).
In the case of `CC(C)(C)[C@@H]1O[C@H](c2ccccc2)[C@H]2C(O)=C(C(=O)NC3CCCCC3)C(=O)N21` (racemic) [12n], the MIC is, setting by setting: under setting [3], 1 µg/mL (≈ 2.51 µM); under setting [2], 1 µg/mL (≈ 2.51 µM); (Table S6) 1.0 µg/mL (≈ 2.51 µM).
Regarding `CC(C)(C)[C@@H]1O[C@H](c2ccccc2)[C@H]2C(O)=C(C(=O)NC3CCCCCC3)C(=O)N21` (racemic) [12o], the MIC by setting is: under setting [3], 1 µg/mL (≈ 2.42 µM); under setting [2], 1 µg/mL (≈ 2.42 µM); (Table S6) 1.0 µg/mL (≈ 2.42 µM).
For the compound `CCCCCCNC(=O)C1=C(O)[C@@H]2[C@@H](c3ccccc3)O[C@@H](C(C)(C)C)N2C1=O` (racemic) [12p], the MIC amounted to 3.9 µg/mL (≈ 9.74 µM) under setting [3], 3.9 µg/mL (≈ 9.74 µM) under setting [2] and 3.9 µg/mL (≈ 9.74 µM) (Table S6).
As for `CCCCCCCCCNC(=O)C1=C(O)[C@@H]2[C@@H](c3ccccc3)O[C@@H](C(C)(C)C)N2C1=O` (racemic) [12q], the MIC under setting [3] is 0.49 µg/mL (≈ 1.11 µM), the MIC under setting [2] is 0.49 µg/mL (≈ 1.11 µM) and the MIC (Table S6) was 0.49 µg/mL (≈ 1.11 µM).
As for `CCCCCCCCCCCCNC(=O)C1=C(O)[C@@H]2[C@@H](c3ccccc3)O[C@@H](C(C)(C)C)N2C1=O` (racemic) [12r], the MIC under setting [3] turned out to be 0.49 µg/mL (≈ 1.01 µM), the MIC under setting [2] was 0.49 µg/mL (≈ 1.01 µM) and the MIC (Table S6) stood at 0.49 µg/mL (≈ 1.01 µM).
For the compound `CC(C)(C)[C@@H]1O[C@H](c2ccccc2)[C@H]2C(O)=C(C(=O)Nc3ccc(C4CCCCC4)cc3)C(=O)N21` (racemic) [12s], the MIC under setting [3] turned out to be 1 µg/mL (≈ 2.11 µM), the minimum inhibitory concentration (MIC) under setting [2] is 1 µg/mL (≈ 2.11 µM) and the MIC (Table S6) is 1.0 µg/mL (≈ 2.11 µM).
On to `CC(C)(C)[C@@H]1O[C@H](c2ccccc2)[C@H]2C(O)=C(C(=O)NC3CCOCC3)C(=O)N21` (racemic) [12t], for which the MIC is 125 µg/mL (≈ 312 µM) under setting [3], 125 µg/mL (≈ 312 µM) under setting [2] and 125 µg/mL (≈ 312 µM) (Table S6).
For the compound `CC(C)(C)[C@@H]1O[C@H](c2ccccc2)[C@H]2C(O)=C(C(=O)NCc3ccccc3)C(=O)N21` (racemic) [12u], the minimal inhibitory concentration (MIC) was 15.6 µg/mL (≈ 38.4 µM) under setting [3], 15.6 µg/mL (≈ 38.4 µM) under setting [2] and 15.6 µg/mL (≈ 38.4 µM) (Table S6).
With `CC(C)(C)NC(=O)C1=C(O)[C@@H]2[C@@H](c3ccccc3)O[C@@H](C(C)(C)C)N2C1=O` (racemic) [12v], the “antibacterial activity” value was “comparable activity with the hexyl 12p”. Besides, the MIC under setting [3] was found to be 3.9 µg/mL (≈ 10.5 µM). This compound also came in with an MIC (Table S6) of 3.9 µg/mL (≈ 10.5 µM).
In the case of `Cc1ccc([C@H]2O[C@@H](C(C)(C)C)N3C(=O)C(C(=O)Nc4ccc(Cl)cc4C)=C(O)[C@H]23)cc1` (racemic) [13b], the MIC is, setting by setting: under setting [1], 1 µg/mL (≈ 2.2 µM); under setting [2], 1 µg/mL (≈ 2.2 µM); (Table S5, against S. aureus) 1.0 µg/mL (≈ 2.2 µM).
